Our source for the IC50 values is patent publication US10017507B2, “Diaza-benzofluoranthrene compounds” (HARBIN PHARMACEUTICAL GROUP CO., LTD. GENERAL …, priority 2015, dated 2018).

This experiment deals with T1, PDE1A (Homo sapiens, UniProt P54750).
T1 construct: purchased SignalChem
The experiment in a line: In vitro detection of phosphodiesterase (PDE): PDE1A enzyme activity by fluorescence polarization immunoassay. Format: biochemical. The note with it: human-derived enzyme, cAMP or cGMP substrate; read-out: IC50s for PDE1. As to the method: Test 1: In Vitro Detection of Phosphodiesterase (PDE)
the enzyme activity of PDE1A was determined by detecting the production of AMP/GMP by fluorescence polarization immunoassay, wherein AlexaFluor 633 labeled AMP/GMP was used to replace AMP/GMP to bind with the antibody.
Reaction buffer: 10 mM Tris-HCl, pH 7.5, 5 mM magnesium chloride, 0.01% Brij 35, 1 mM DTT and 1% DMSO;
Enzyme substrate: […] cAMP or cGMP (Ca^2+-calmodulin acts as a cofactor of PDE1A)
Detection reagent: Transcreener® AMP2/GMP2 antibody; AMP2/GMP2 AlexaFluor 633 tracer.
Experimental Procedure and Method:
1. Human-derived enzyme (commercially available from SignalChem) to be tested and substrate were diluted with freshly prepared reaction buffer;
2. The enzyme solution (with a concentration of 3 pM) was added to the holes of the microplates;
3. A series of solutions of the compounds in 100% DMSO (with the desired concentrations) were added to the holes containing the enzyme solution by Echo550, and then the microplates were incubated for 10 minutes at room temperature;
4. The substrate solution was added to the holes containing the enzyme and compounds to start the reaction;
5. The microplates were incubated for 1 hour under room temperature and vibration;
6. The detection mixture (tracer and antibody in stop buffer) was added to stop the enzyme reaction, and the microplates were incubated for 90 minutes under vibration;
7. The equipment EnVision (PerkinElmer), Cy5 FP Ex FP 620, Em S-pol 688/P-pol 688, FP mirror D658fp/D688 was used to detect the reaction mixture, and Ex/Em 620/688 was used to detect the fluorescence polarization.
In the Excel table, the enzyme activity corresponding to the FP signal was found on the AMP/GMP standard curve by reference to the DMSO negative control, and then was converted to product concentration (nM). GraphPad Prism was used to analyze and calculate the IC50 values.
A general note: Fluorescence polarisation rises when a labelled molecule tumbles more slowly, as on binding a larger partner.
Take `CC[C@@]12C=C(c3nc(-c4ccccc4)no3)n3c4c(c5ccccc53)CCN(CCC1)[C@H]42` [Example 30, 5-((4^1S,13aS)-13a-ethyl-2,3,4^1,5,6,13a-hexahydro-1H-indolo[3,2,1-de]pyrido[3,2,1-ij][1,5]naphthyridin-12-yl)-3-phenyl-1,2,4-oxadiazole]: the IC50 was > 100 µM.
In the case of `CC[C@@]12C=C(c3noc(-c4ccc(F)cc4)n3)n3c4c(c5ccccc53)CCN(CCC1)[C@H]42` [Example 27, 3-((4^1S,13aS)-13a-ethyl-2,3,4^1,5,6,13a-hexahydro-1H-indolo[3,2,1-de]pyrido[3,2,1-ij][1,5]naphthyridin-12-yl)-5-(4-fluorophenyl)-1,2,4-oxadiazole] it was > 100 µM.
In the case of `CC[C@@]12C=C(c3nc(C)c(C(N)=O)o3)n3c4c(c5ccccc53)CCN(CCC1)[C@H]42` [Example 62, 2-((4^1S,13aS)-13a-ethyl-2,3,4^1,5,6,13a-hexahydro-1H-indolo[3,2,1-de]pyrido[3,2,1-ij][1,5]naphthyridin-12-yl)-4-methyloxazole-5-carboxamide] it was 1 to 20 µM.
Under `CC[C@@]12C=C(c3nc(C)c(C(C)(C)O)o3)n3c4c(c5ccccc53)CCN(CCC1)[C@H]42` [Example 60, 2-(2-((4^1S,13aS)-13a-ethyl-2,3,4^1,5,6,13a-hexahydro-1H-indolo[3,2,1-de]pyrido[3,2,1-ij][1,5]naphthyridin-12-yl)-4-methyloxazol-5-yl)propan-2-ol] stands 1 to 20 µM.
On to `CC[C@@]12C=C(c3nc(-c4ccncc4)no3)n3c4c(c5ccccc53)CCN(CCC1)[C@H]42` [Example 31, 5-((4^1S,13aS)-13a-ethyl-2,3,4^1,5,6,13a-hexahydro-1H-indolo[3,2,1-de]pyrido[3,2,1-ij][1,5]naphthyridin-12-yl)-3-(pyridin-4-yl)-1,2,4-oxadiazole], for which the IC50 was 1 to 20 µM.
Take `CC[C@@]12C=C(c3ncccc3C)n3c4c(c5ccccc53)CCN(CCC1)[C@H]42` [Example 13, (4^1S,13aS)-13a-ethyl-12-(3-methylpyridin-2-yl)-2,3,4^1,5,6,13a-hexahydro-1H-indolo[3,2,1-de]pyrido[3,2,1-ij][1,5]naphthyridine]: the IC50 lay in the range of 20 to 100 µM.
In the case of `CCc1nc(C2=C[C@]3(CC)CCCN4CCc5c(n2c2ccccc52)[C@@H]43)oc1C` [Example 56, 4-ethyl-2-((4^1S,13aS)-13a-ethyl-2,3,4^1,5,6,13a-hexahydro-1H-indolo[3,2,1-de]pyrido[3,2,1-ij][1,5]naphthyridin-12-yl)-5-methyloxazole] it was ≤ 1 µM.
In the case of `CC[C@@]12C=C(c3nc(C)c(C)o3)n3c4c(c5cc(S(=O)(=O)NCCCOC)ccc53)CCN(CCC1)[C@H]42` [Example 72, (4^1S,13aS)-12-(4,5-dimethyloxazol-2-yl)-13a-ethyl-N-(3-methoxylpropyl)-2,3,4^1,5,6,13a-hexahydro-1H-indolo[3,2,1-de]pyrido[3,2,1-ij][1,5]naphthyridin-9-sulfonamide] it was 20 to 100 µM; in that of `CC[C@@]12C=C(c3nccc(C)n3)n3c4c(c5ccccc53)CCN(CCC1)[C@H]42` [Example 8, (4^1S,13aS)-13a-ethyl-12-(4-methylpyrimidin-2-yl)-2,3,4^1,5,6,13a-hexahydro-1H-indolo[3,2,1-de]pyrido[3,2,1-ij][1,5]naphthyridine], 20 to 100 µM; in that of `CC[C@@]12C=C(/C=C/C(N)=O)n3c4c(c5ccccc53)CCN(CCC1)[C@H]42` [Example 7, (E)-3-((4^1S,13aS)-13a-ethyl-2,3,4^1,5,6,13a-hexahydro-1H-indolo[3,2,1-de]pyrido[3,2,1-ij][1,5]naphthyridin-12-yl)acrylamide], 20 to 100 µM.
Under `CC[C@@]12C=C(c3nc(C4CC4)no3)n3c4c(c5ccccc53)CCN(CCC1)[C@H]42` [Example 35, 3-Cyclopropyl-5-((4^1S,13aS)-13a-ethyl-2,3,4^1,5,6,13a-hexahydro-1H-indolo[3,2,1-de]pyrido[3,2,1-ij][1,5]naphthyridin-12-yl)-1,2,4-oxadiazole] stands 1 to 20 µM.
